The values below come from patent US11273168B2, “Methods of treating anxiety by administering a substituted quinolone” (OTSUKA PHARMACEUTICAL CO., LTD., priority 2010, dated 2022).

What all share (assay type): biochemical
One test has as its target T1, Serotonin (5-HT) uptake (Rattus norvegicus, UniProt P31652).
T1 construct: The suspension was used as a crude synaptosome fraction; from tissue; host or cells: rat (male Wistar) frontal cortex, crude synaptosome fraction
In words: Serotonin (5-HT) uptake inhibitory activity using rat brain synaptosome (frontal cortex). To be noted: tritium-labeled 5-HT 8 nM, 37° C. 10 minutes. How it is done: Measurement of Serotonin (5-HT) Uptake Inhibitory Activity of Test Compound Using Rat Brain Synaptosome
Male Wistar rats were decapitated, and their brains were removed and dissected to remove the frontal cortex. The separated frontal cortex was placed in a 20-fold weight of a 0.32 molarity (M) sucrose solution and homogenized with a potter homogenizer. The homogenate was centrifuged at 1000 g at 4° C. for 10 minutes, and the supernatant was further centrifuged at 20000 g at 4° C. for 20 minutes. […] The suspension was used as a crude synaptosome fraction.
(§1) Uptake reaction was performed using each well of a 96-well round-bottom plate and a 200 μl volume in total of a solution containing pargyline (final concentration: 10 μM) and ascorbic acid (final concentration: 0.2 mg/ml).
(§2) Specifically, a solvent, unlabeled 5-HT, and serially diluted test compounds were separately added to the wells, and the synaptosome fraction was added in an amount 1/10 of the final volume to each well and preincubated at 37° C. for 10 minutes. Then, a tritium-labeled 5-HT solution (final concentration: 8 nM) was added thereto to initiate uptake reaction at 37° C. 10 minutes later, the uptake reaction was terminated by suction filtration through a 96-well glass fiber filter plate. Furthermore, the filter was washed with a cold saline and then sufficiently dried. MicroScint-O (PerkinElmer Co., Ltd.) was added thereto, and the residual radioactivity on the filter was measured.
An uptake value obtained by the addition of only the solvent was defined as 100%, and an uptake value (nonspecific uptake value) obtained by the addition of the unlabeled 5-HT (final concentration: 10 μM) was defined as 0%. A 50%, inhibitory concentration was calculated from the test compound concentrations and inhibitory activities thereat.

Test [1] has as its target Norepinephrine (NE) uptake (Rattus norvegicus, UniProt Q9WTR4). Nature of the test: Norepinephrine (NE) uptake inhibitory activity using rat brain synaptosome (hippocampus). As to the method:
Measurement of Norepinephrine (NE) Uptake Inhibitory Activity of Test Compound Using Rat Brain Synaptosome
Male Wistar rats were decapitated, and their brains were removed and dissected to remove the hippocampus. The separated hippocampus was placed in a 20-fold weight of a 0.32 molarity (M) sucrose solution and homogenized with a potter homogenizer. The homogenate was centrifuged at 1000 g at 4° C. for 10 minutes, and the supernatant was further centrifuged at 20000 g at 4° C. for 20 minutes. The pellet was suspended in an incubation buffer (20 mM HEPES buffer (pH 7.4) containing 10 mM glucose, 145 mM sodium chloride, 4.5 mM potassium chloride, 1.2 mM magnesium chloride, and 1.5 mM calcium chloride). The suspension was used as a crude synaptosome fraction.
as §1
as §2, with “unlabeled NE,” for “unlabeled 5-HT,”, “tritium-labeled NE” for “tritium-labeled 5-HT”, “concentration: 12” for “concentration: 8”, “C. Ten” for “C. 10”
An uptake value obtained by the addition of only the solvent was defined as 100%, and an uptake value (nonspecific uptake value) obtained by the addition of the unlabeled NE (final concentration: 10 μM) was defined as 0%. A 50% inhibitory concentration was calculated from the test compound concentrations and inhibitory activities thereat.

A further test has as its target T2, Dopamine (DA) uptake (Rattus norvegicus, UniProt P23977).
T2 construct: The suspension was used as a crude synaptosome fraction; from tissue; host or cells: rat (male Wistar) corpus striatum, crude synaptosome fraction
In words: Dopamine (DA) uptake inhibitory activity using rat brain synaptosome (corpus striatum). To be noted: tritium-labeled DA 2 nM, 37° C. ten minutes, read-out: 50% Inhibitory concentration. How it is done:
Measurement of Dopamine (DA) Uptake Inhibitory Activity of Test Compound Using Rat Brain Synaptosome
Male Wistar rats were decapitated, and their brains were removed and dissected to remove the corpus striatum. The separated corpus striatum was placed in a 20-fold weight of a 0.32 molarity (M) sucrose solution and homogenized with a potter homogenizer. The homogenate was centrifuged at 1000 g at 4° C. for 10 minutes, and the supernatant was further centrifuged at 20000 g at 4° C. for 20 minutes. […] The suspension was used as a crude synaptosome fraction.
Uptake reaction was performed using each well of a 96-well round-bottom plate and a 200 μl volume in total of a solution containing pargyline (final concentration: 10 μM) and ascorbic acid (final concentration: 0.2 mg/mil).
as §2, with “unlabeled DA,” for “unlabeled 5-HT,”, “tritium-labeled DA” for “tritium-labeled 5-HT”, “concentration: 2” for “concentration: 8”, “C. Ten” for “C. 10”
An uptake value obtained by the addition of only the solvent was defined as 100%, and an uptake value (nonspecific uptake value) obtained by the addition of the unlabeled DA (final concentration: 10 μM) was defined as 0%. A 50% inhibitory concentration was calculated from the test compound concentrations and inhibitory activities thereat.

The mark [2] stands for this setting: read-out: 50% Inhibitory concentration.
Setting [3] is: tritium-labeled NE 12 nM, 37° C. ten minutes, read-out: 50% inhibitory concentration.
The mark [4] stands for this setting: read-out: 50% inhibitory concentration, tritium-labeled NE 12 nM, 37° C. ten minutes.

Where a name gives a salt, the structure may show the parent alone. Read-outs that look alike come from different tables or passages of the source.

T1 sequence (P31652 whole entry): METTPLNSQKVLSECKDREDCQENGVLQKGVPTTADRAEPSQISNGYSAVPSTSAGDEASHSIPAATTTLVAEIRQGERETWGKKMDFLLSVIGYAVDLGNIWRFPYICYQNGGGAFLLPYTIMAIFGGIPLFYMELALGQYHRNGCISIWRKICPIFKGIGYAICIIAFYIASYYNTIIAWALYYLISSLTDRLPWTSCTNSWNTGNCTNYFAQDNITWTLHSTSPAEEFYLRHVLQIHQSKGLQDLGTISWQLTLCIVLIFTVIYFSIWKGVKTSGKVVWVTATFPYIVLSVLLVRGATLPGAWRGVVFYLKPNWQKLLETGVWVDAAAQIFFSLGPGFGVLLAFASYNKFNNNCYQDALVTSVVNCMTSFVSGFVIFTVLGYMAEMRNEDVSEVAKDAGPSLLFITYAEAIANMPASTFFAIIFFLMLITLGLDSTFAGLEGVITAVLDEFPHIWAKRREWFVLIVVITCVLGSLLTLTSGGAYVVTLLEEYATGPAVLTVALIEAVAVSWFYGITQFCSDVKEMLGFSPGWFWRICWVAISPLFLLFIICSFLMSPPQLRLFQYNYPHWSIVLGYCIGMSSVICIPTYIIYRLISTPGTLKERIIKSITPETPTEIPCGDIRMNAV
T2 sequence (P23977 whole entry): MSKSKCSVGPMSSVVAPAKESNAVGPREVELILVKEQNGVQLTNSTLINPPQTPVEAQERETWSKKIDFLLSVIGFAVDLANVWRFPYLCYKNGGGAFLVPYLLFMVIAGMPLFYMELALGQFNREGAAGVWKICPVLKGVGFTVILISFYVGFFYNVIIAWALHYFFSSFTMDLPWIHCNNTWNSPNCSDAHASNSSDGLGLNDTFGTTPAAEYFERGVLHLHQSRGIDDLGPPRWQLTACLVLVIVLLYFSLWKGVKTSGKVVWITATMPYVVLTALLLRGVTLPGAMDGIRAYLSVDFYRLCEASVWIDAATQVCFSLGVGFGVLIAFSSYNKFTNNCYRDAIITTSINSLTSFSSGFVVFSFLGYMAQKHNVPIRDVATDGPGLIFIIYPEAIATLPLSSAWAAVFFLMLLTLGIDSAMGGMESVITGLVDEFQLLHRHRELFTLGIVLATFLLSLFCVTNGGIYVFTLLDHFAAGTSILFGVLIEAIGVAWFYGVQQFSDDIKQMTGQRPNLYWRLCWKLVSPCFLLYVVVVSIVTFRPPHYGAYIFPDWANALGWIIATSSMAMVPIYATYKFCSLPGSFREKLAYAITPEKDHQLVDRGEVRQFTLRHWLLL

As to `CC1(C)CN(c2ccc3sccc3c2)C2COCC2N1` (stereo not drawn) [Example 8], the IC50 at Serotonin (5-HT) uptake (setting [2]) was 2.4 nM; in test [1] (setting [3]), 60.9 nM; at Dopamine (DA) uptake, 378 nM.

In the case of `c1cc(N2CC3(CCC3)N[C@H]3CCCC[C@@H]32)c2ccoc2c1` [Example 1047], the IC50 on Serotonin (5-HT) uptake (setting [2]) was 0.7 nM; in test [1] (setting [3]) it was 0.7 nM; at Dopamine (DA) uptake, 1.1 nM.

On to `CC1(C)CN(c2cccc3occc23)[C@H]2CCCC[C@H]2N1` [Example 131], for which the IC50 was 6.1 nM at Serotonin (5-HT) uptake (setting [2]), 0.7 nM in test [1] (setting [3]) and 8.3 nM on Dopamine (DA) uptake.

For the compound `CC1(C)CN(c2ccc(O)cc2)[C@H]2CCCC[C@H]2N1` [Example 805], the IC50 on Serotonin (5-HT) uptake (setting [2]) is 42.6 nM; in test [1] (setting [3]), 30.4 nM; at Dopamine (DA) uptake, 83.8 nM.

As to `CC1(C)CN(c2ccc3[nH]c(C#N)cc3c2)[C@@H]2CCCC[C@H]2N1` [Example 993], the IC50 turned out to be 4.8 nM on Serotonin (5-HT) uptake (setting [2]), 8.7 nM in test [1] (setting [3]) and 38.6 nM at Dopamine (DA) uptake.

As to `CN1[C@@H]2CCCC[C@@H]2N(c2cccc3sccc23)CC1(C)C` [Example 125], the IC50 on Serotonin (5-HT) uptake (setting [2]) was 4.7 nM; in test [1] (setting [3]), 1.9 nM; on Dopamine (DA) uptake it was 5.2 nM.

In the case of `C[C@@H]1CN(c2ccc(OC(F)F)c(F)c2)[C@H]2CCCC[C@@H]2N1` [Example 1534], the IC50 turned out to be 38.1 nM at Serotonin (5-HT) uptake (50% Inhibitory concentration), 4 nM in test [1] (setting [4]) and 215 nM at Dopamine (DA) uptake.

With `CC1(C)CN(c2ccc(F)c3c2CCC3)[C@H]2CCCC[C@H]2N1` [Example 791], the IC50 was determined as 1.4 nM at Serotonin (5-HT) uptake (setting [2]), 0.7 nM in test [1] (setting [3]) and 161 nM at Dopamine (DA) uptake.

For the compound `CC1(C)CN(c2csc3ccccc23)[C@@H]2CCCC[C@@H]2N1` [Example 577], the IC50 at Serotonin (5-HT) uptake (setting [2]) amounted to 5.2 nM; in test [1] (setting [3]), 5.9 nM; at Dopamine (DA) uptake, 47.9 nM.

Turning to `CC1(C)CN(c2cccc3occc23)[C@@H]2CCCC[C@@H]2N1` (relative stereo) [Example 33], the IC50 at Serotonin (5-HT) uptake (setting [2]) stood at 2.6 nM; in test [1] (setting [3]), 0.7 nM; at Dopamine (DA) uptake, 15.1 nM.

Consider `CC1(C)CN(c2ccc(Cl)c3occc23)[C@H]2CCCC[C@@H]2N1` [Example 193], for which the IC50 was found to be 3.4 nM at Serotonin (5-HT) uptake (setting [2]), 4.4 nM in test [1] (setting [3]) and 5.7 nM on Dopamine (DA) uptake.

Take `CC1(C)CN(c2ccc(OC(F)F)c3occc23)[C@@H]2CCCC[C@H]2N1` [Example 983]: the IC50 worked out at 6.5 nM at Serotonin (5-HT) uptake (setting [2]), 47.6 nM in test [1] (setting [3]) and 173 nM at Dopamine (DA) uptake.

With `CC1(C)CN(c2ccc(F)c3ccccc23)[C@H]2CCCC[C@@H]2N1` (relative stereo) [Example 409], the results for the IC50 (at Serotonin (5-HT) uptake (setting [2]); in test [1] (setting [3]); at Dopamine (DA) uptake) were 35.6 nM, 9.1 nM and 165 nM, respectively.

As for `CC1(C)CCN(c2ccc(Cl)c(Cl)c2)[C@@H]2CCCC[C@@H]2N1` (relative stereo) [Example 322], the figures for the IC50 (on Serotonin (5-HT) uptake (setting [2]); in test [1] (setting [3]); at Dopamine (DA) uptake) were 9.6 nM, 40.1 nM and 67.7 nM, respectively.

Consider `CC1(C)CN(c2ccc3sccc3c2)[C@@H]2CCCCC[C@@H]2N1` (racemic) [Example 344], for which the IC50 was found to be 6.8 nM at Serotonin (5-HT) uptake (setting [2]), 7.5 nM in test [1] (setting [3]) and 9.8 nM on Dopamine (DA) uptake.

For `CC1(C)CN(c2ccc3cc(C#N)oc3c2)[C@@H]2CCCC[C@@H]2N1` [Example 641], the IC50 on Serotonin (5-HT) uptake (setting [2]) stood at 2.2 nM; in test [1] (setting [3]), 76 nM; at Dopamine (DA) uptake, 9.7 nM.

For `CC[C@@H]1CN(c2ccc3ccccc3c2)[C@H]2CCCC[C@@H]2N1C` (relative stereo) [Example 288], the values for the IC50 (at Serotonin (5-HT) uptake (setting [2]); in test [1] (setting [3]); at Dopamine (DA) uptake) were 56.1 nM, 22 nM and 74.7 nM, respectively.

Regarding `CC1(C)CN(c2ccnc3[nH]ccc23)[C@H]2CCCC[C@@H]2N1` [Example 586, (4aS,8aS)-3,3-dimethyl-1-(1H-pyrrolo[2,3-b]pyridin-4-yl)decahydroquinoxaline fumarate], the IC50 was found to be 5.2 nM at Serotonin (5-HT) uptake (setting [2]), 4 nM in test [1] (setting [3]) and 93 nM on Dopamine (DA) uptake.

Take `CN1[C@H]2CCCC[C@@H]2N(c2ccc3sccc3c2)CC1(C)C` [Example 187]: the IC50 amounted to 5.8 nM on Serotonin (5-HT) uptake (setting [2]), 6 nM in test [1] (setting [3]) and 12.1 nM on Dopamine (DA) uptake.

On to `CC1(C)CN(c2ccc3sccc3c2)[C@H]2CCCCC[C@@H]2N1` (relative stereo) [Example 348], for which the IC50 at Serotonin (5-HT) uptake (setting [2]) amounted to 6.4 nM; in test [1] (setting [3]) it was 4.6 nM; at Dopamine (DA) uptake, 27.3 nM.

`CC1(C)CN(c2ccc(Cl)c(Cl)c2)[C@H]2CCCC[C@@H]2N1` [Example 246]: the IC50 worked out at 6.8 nM on Serotonin (5-HT) uptake (setting [2]), 3.8 nM in test [1] (setting [3]) and 8.8 nM on Dopamine (DA) uptake.

With `c1cc2cc(N3CC4(CCCC4)N[C@H]4CCCC[C@@H]43)ccc2s1` (relative stereo) [Example 307], the IC50 on Serotonin (5-HT) uptake (setting [2]) is 19.3 nM; in test [1] (setting [3]) it was 40.4 nM; at Dopamine (DA) uptake it was 68.2 nM.

Consider `C[C@@H]1CN(c2ccc3ccc(C#N)cc3c2)[C@H]2CCCC[C@@H]2N1` [Example 1341], for which the IC50 worked out at 6.8 nM on Serotonin (5-HT) uptake (setting [2]), 42.7 nM in test [1] (setting [3]) and 113 nM at Dopamine (DA) uptake.

Regarding `CC1(C)CN(c2cccc3[nH]ncc23)[C@H]2CCCC[C@H]2N1` [Example 778], the results for the IC50 (at Serotonin (5-HT) uptake (setting [2]); in test [1] (setting [3]); at Dopamine (DA) uptake) were 87.5 nM, 4.2 nM and 4.9 nM, respectively.

As to `CC1(C)CN(c2cccc3occc23)[C@H]2CCCC[C@@H]2N1` [Example 191], the IC50 on Serotonin (5-HT) uptake (setting [2]) was determined as 3.2 nM; in test [1] (setting [3]), 2.1 nM; at Dopamine (DA) uptake it was 13.5 nM.

With `CC1(C)CN(c2cccc3ccsc23)[C@H]2CCCC[C@H]2N1` [Example 130], the IC50 on Serotonin (5-HT) uptake (setting [2]) is 5.3 nM; in test [1] (setting [3]), 0.5 nM; at Dopamine (DA) uptake, 3.9 nM.

In the case of `CC1(C)CN(c2ccc3[nH]c(C#N)cc3c2)[C@H]2CCCC[C@H]2N1` [Example 781], the IC50 is 6.2 nM on Serotonin (5-HT) uptake (setting [2]), 3 nM in test [1] (setting [3]) and 5.2 nM on Dopamine (DA) uptake.

As for `CC1(C)CN(c2cccc3ncccc23)[C@H]2CCCC[C@H]2N1` [Example 120], the IC50 against Serotonin (5-HT) uptake (50% Inhibitory concentration) was determined as 9.2 nM; in test [1] (setting [4]), 9.2 nM; at Dopamine (DA) uptake it was 187 nM.

On to `CC1(C)CN(c2ccc3ccsc3c2)[C@H]2CCCC[C@@H]2N1` [Example 188], for which the IC50 turned out to be 6 nM on Serotonin (5-HT) uptake (setting [2]), 0.8 nM in test [1] (setting [3]) and 7.9 nM at Dopamine (DA) uptake.

On to `C[C@@H]1CN(c2cccc3ccsc23)[C@@H]2CCCC[C@@H]2N1` (relative stereo) [Example 1113], for which the IC50 at Serotonin (5-HT) uptake (setting [2]) worked out at 5.4 nM; in test [1] (setting [3]), 1.7 nM; on Dopamine (DA) uptake, 26 nM.
